In patent US9822131B2, “Certain chemical entities, compositions and methods” (Intellikine LLC, priority 2008, dated 2017):

Legend:
PI3K α = molecular target: T1, PI3K α (Homo sapiens, UniProt P42336); assay: PI3K α in vitro kinase inhibition assay; type: biochemical
T1 construct: purchased Upstate
Method: (§1) IC50 values are measured using either a standard TLC assay for lipid kinase activity (described below) or a high-throughput membrane capture assay. Kinase reactions are performed by preparing a reaction mixture containing kinase, inhibitor (2% DMSO final concentration), buffer (25 mM HEPES, pH 7.4, 10 mM MgCl2), and freshly sonicated phosphatidylinositol (100 μg/ml). Reactions are initiated by the addition of ATP containing 10 μCi of γ-32P-ATP to a final concentration 10 or 100 μM and allowed to proceed for 5 minutes at room temperature. For TLC analysis, reactions are then terminated by the addition of 105 μl 1N HCl followed by 160 μl CHCl3:MeOH (1:1). The biphasic mixture is vortexed, briefly centrifuged, and the organic phase is transferred to a new tube using a gel loading pipette tip precoated with CHCl3. This extract is spotted on TLC plates and developed for 3-4 hours in a 65:35 solution of n-propanol:1M acetic acid. The TLC plates are then dried, exposed to a phosphorimager screen (Storm, Amersham), and quantitated.
(§2) Briefly, the assay is a time resolved FRET assay that indirectly measures PIP3 product formed by the activity of a PI3-K. The kinase reaction is performed in a microtiter plate (e.g., a 384 well microtiter plate). The total reaction volume is approximately 20 ul per well. In the first step, each well receives 2 ul of test compound in 20% dimethylsulphoxide resulting in a 2% DMSO final concentration. Next, approximately 14.5 ul of a kinase/PIP2 mixture (diluted in 1× reaction buffer) is added per well for a final concentration of 0.25-0.3 ug/ml kinase and 10 uM PIP2. […] To start the reaction, 3.5 ul of ATP (diluted in 1× reaction buffer) is added per well for a final concentration of 10 uM ATP. The plate is sealed and incubated for 1 hour at room temperature. The reaction is stopped by adding 5 ul of Stop Solution per well and then 5 μl of Detection Mix is added per well. The plate is sealed, incubated for 1 hour at room temperature, and then read on an appropriate plate reader. Data is analyzed and IC50s are generated using GraphPad Prism 5.

Balb/c splenic B cells = assay: B cell activation and proliferation assay (Alamar Blue); type: cell-based; conditions: Mus musculus, read-out: B cell proliferation EC50
PI3K γ = molecular target: T2, PI3K γ (Homo sapiens, UniProt P48736); assay: PI3K γ in vitro kinase inhibition assay; type: biochemical
T2 construct: purchased Sigma
T2 sequence (P48736 whole entry): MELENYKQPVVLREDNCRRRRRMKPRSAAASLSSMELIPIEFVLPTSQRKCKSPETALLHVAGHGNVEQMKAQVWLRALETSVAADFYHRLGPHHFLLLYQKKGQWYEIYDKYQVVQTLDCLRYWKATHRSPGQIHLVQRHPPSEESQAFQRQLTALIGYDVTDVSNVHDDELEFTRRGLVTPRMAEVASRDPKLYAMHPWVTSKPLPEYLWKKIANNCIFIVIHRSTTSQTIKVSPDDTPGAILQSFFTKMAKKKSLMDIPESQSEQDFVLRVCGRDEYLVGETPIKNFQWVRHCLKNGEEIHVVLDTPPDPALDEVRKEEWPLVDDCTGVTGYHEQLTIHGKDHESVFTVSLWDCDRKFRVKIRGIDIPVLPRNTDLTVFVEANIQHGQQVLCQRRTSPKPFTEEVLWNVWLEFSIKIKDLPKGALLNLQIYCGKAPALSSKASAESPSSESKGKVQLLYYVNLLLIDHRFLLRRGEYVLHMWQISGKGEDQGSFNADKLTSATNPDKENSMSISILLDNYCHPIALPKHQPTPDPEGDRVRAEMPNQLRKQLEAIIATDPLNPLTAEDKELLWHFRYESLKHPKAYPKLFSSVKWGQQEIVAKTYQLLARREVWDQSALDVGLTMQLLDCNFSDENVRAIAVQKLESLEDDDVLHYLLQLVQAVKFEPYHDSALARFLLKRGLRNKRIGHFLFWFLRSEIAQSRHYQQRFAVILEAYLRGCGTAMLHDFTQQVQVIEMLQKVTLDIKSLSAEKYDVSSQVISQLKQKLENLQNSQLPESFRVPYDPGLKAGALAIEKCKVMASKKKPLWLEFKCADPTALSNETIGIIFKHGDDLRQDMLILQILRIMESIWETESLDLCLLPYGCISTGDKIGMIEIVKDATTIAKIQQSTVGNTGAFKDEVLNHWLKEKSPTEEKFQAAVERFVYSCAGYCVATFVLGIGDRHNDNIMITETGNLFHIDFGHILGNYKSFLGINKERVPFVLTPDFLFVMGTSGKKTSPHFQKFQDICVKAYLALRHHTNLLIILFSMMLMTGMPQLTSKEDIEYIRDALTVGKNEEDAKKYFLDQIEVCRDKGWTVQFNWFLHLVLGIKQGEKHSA
Method: as §1, §2

PI3K β = molecular target: T3, PI3K β (Homo sapiens, UniProt P42338); assay: PI3K β in vitro kinase inhibition assay; type: biochemical
T3 construct: purchased Upstate
T3 sequence (P42338 whole entry): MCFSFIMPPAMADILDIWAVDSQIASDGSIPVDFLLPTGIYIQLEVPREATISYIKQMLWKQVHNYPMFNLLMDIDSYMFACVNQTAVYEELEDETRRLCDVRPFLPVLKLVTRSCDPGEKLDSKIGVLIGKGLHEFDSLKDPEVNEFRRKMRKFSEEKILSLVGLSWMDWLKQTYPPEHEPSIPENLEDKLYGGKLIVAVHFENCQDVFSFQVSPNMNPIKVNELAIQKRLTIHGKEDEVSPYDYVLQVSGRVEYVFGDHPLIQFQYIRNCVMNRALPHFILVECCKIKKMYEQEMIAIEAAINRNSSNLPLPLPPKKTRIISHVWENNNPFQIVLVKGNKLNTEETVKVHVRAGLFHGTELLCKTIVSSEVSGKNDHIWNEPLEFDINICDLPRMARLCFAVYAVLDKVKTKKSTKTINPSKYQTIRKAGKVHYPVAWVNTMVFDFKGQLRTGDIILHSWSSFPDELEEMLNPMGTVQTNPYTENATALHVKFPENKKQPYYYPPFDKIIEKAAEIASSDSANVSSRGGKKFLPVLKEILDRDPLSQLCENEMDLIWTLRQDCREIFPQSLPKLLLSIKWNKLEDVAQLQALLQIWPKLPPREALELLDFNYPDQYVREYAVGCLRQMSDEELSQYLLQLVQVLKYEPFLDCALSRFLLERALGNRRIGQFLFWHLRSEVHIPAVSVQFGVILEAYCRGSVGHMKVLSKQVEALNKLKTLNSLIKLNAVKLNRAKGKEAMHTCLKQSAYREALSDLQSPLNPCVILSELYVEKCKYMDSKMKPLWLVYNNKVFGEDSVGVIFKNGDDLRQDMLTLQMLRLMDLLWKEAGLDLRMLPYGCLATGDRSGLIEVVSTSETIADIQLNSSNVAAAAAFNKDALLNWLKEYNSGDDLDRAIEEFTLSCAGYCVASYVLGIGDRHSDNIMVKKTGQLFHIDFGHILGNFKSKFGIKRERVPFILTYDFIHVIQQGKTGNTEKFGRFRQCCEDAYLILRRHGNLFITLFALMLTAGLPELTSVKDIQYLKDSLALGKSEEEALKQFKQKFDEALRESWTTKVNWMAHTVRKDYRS
T3 sequence (P27986 whole entry partner): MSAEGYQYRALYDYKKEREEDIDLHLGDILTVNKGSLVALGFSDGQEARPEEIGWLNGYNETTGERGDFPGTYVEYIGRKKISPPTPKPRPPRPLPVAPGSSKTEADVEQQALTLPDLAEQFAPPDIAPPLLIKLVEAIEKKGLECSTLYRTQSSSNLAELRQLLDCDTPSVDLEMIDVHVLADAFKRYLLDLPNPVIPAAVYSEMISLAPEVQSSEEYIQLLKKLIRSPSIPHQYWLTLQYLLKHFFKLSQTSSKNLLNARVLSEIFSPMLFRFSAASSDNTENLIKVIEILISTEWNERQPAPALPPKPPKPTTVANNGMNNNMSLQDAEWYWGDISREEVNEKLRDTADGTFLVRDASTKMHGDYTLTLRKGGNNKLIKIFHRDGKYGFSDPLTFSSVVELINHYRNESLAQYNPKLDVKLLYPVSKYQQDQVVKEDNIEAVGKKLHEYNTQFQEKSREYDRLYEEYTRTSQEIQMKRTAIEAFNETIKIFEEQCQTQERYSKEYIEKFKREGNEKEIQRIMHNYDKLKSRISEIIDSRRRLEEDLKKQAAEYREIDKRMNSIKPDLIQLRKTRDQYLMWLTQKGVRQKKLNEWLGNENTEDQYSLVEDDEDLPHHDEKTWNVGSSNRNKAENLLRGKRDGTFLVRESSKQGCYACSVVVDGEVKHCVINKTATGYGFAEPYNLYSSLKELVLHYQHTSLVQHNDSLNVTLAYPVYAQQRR
Method: as §1, §2

PI3K δ = molecular target: T4, PI3K δ (Homo sapiens, UniProt O00329); assay: PI3K δ in vitro kinase inhibition assay; type: biochemical
T4 construct: purchased Upstate
T4 sequence (O00329 whole entry): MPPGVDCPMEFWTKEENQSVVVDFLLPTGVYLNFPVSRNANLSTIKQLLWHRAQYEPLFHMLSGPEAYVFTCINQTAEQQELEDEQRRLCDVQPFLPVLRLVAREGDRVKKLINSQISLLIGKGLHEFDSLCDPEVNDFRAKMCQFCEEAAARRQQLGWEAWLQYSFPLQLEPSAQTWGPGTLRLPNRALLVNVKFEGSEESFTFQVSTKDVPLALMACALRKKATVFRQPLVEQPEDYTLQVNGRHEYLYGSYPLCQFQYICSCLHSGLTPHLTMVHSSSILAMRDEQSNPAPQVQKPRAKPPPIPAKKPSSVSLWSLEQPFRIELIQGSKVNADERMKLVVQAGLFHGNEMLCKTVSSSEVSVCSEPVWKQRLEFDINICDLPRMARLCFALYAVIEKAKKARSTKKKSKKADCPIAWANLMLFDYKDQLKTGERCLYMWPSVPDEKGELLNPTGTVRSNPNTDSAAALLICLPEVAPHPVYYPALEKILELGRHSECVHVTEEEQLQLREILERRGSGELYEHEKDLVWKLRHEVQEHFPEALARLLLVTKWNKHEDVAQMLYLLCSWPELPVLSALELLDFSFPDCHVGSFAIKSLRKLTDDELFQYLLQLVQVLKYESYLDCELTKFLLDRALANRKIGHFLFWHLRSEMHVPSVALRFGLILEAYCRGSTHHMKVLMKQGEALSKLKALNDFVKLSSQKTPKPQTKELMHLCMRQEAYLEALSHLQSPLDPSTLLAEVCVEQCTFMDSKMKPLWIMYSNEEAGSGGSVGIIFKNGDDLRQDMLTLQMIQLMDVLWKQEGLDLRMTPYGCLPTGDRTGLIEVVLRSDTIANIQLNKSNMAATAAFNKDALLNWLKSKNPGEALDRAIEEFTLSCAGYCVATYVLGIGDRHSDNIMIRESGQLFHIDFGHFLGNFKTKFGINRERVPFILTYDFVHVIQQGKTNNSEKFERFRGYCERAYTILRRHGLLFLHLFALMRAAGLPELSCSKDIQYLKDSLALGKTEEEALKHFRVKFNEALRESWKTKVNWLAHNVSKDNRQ
T4 sequence (P27986 whole entry partner): as the sequence (P27986 whole entry partner) above
Method: as §1, §2

T1 sequence (P42336 whole entry): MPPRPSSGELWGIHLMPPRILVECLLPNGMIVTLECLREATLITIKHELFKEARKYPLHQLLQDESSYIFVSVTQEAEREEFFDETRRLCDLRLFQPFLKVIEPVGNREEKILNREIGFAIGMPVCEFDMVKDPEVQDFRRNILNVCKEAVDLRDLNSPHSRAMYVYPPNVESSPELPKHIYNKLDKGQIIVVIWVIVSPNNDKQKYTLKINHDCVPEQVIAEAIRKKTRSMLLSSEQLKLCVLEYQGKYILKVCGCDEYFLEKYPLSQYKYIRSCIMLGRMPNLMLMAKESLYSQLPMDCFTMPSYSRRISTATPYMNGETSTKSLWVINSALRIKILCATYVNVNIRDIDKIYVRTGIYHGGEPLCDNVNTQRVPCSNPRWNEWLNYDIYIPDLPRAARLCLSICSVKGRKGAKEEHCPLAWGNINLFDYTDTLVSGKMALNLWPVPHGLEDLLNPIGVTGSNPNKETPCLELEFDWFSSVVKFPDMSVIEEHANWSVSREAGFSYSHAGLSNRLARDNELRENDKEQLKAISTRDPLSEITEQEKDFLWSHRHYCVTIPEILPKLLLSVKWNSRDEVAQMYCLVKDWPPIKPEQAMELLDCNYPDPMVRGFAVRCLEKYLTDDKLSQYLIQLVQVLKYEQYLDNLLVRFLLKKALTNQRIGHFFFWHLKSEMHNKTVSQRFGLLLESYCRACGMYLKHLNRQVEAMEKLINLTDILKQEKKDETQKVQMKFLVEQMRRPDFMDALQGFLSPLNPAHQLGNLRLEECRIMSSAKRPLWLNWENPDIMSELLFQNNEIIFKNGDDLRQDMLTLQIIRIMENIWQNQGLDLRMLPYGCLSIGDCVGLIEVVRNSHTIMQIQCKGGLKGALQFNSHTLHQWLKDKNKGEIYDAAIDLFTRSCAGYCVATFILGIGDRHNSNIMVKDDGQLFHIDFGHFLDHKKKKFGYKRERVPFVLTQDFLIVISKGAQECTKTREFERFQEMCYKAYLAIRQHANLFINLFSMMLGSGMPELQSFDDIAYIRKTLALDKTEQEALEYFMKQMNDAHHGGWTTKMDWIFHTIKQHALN
T1 sequence (P27986 whole entry partner): as the sequence (P27986 whole entry partner) above

| Compound | IC50 (PI3K α) [µM] | EC50 (Balb/c splenic B cells) [µM] | IC50 (PI3K γ) [µM] | IC50 (PI3K β) [µM] | IC50 (PI3K δ) [µM] |
| --- | --- | --- | --- | --- | --- |
| Cc1cccnc1-n1c(Cn2nc(-c3cc(O)cc(F)c3)c3c(N)ncnc32)nc2scc(C)c2c1=O [Compound 297] | > 10 | < 0.1 | > 10 | < 10 | < 0.1 |
| Cc1csc2nc(Cn3nc(-c4ccc(F)c(O)c4)c4c(N)ncnc43)n(-c3ccccc3F)c(=O)c12 [Compound 259] | > 10 | < 0.1 | < 1 | > 10 | < 0.1 |
| CCc1ccccc1-n1c(Cn2nc(-c3cc(O)cc(F)c3)c3c(N)ncnc32)nc2scc(C)c2c1=O [Compound 292] | > 10 | < 0.1 | < 0.1 | < 1 | < 0.1 |
| Cc1ccccc1-n1c(Cn2nc(C#CC3CC3)c3c(N)ncnc32)nc2nccc(C)c2c1=O [Compound 202] | > 10 | < 10 | > 10 | > 10 | < 1 |
| Cc1csc2nc(Cn3nc(Br)c4c(N)ncnc43)n(-c3ccccc3Cl)c(=O)c12 [Compound 286] | > 10 | < 0.1 | < 1 | < 10 | < 0.1 |
| Cc1ccccc1-n1c(Cn2nc(-c3cccc(O)c3)c3c(N)ncnc32)nc2c(C)nn(C)c2c1=O [Compound 217] | > 10 | < 10 | > 10 | > 10 | < 10 |
| Cc1nn(Cc2nc3nccc(C)c3c(=O)n2-c2ccccc2F)c2ncnc(N)c12 [Compound 210] | > 10 | < 10 | > 10 | > 10 | < 10 |
| Cc1csc2nc(Cn3nc(-c4ccc(O)cc4)c4c(N)ncnc43)n(-c3ccccc3F)c(=O)c12 [Compound 263] | > 10 | < 10 | < 10 | > 10 | < 10 |
| Cc1csc2nc(Cn3nc(-c4cccc(O)c4)c4c(N)ncnc43)n(-c3ccccc3C(F)(F)F)c(=O)c12 [Compound 281] | > 10 | < 0.1 | < 0.1 | < 10 | < 0.1 |
| Cc1ccccc1-n1c(Cn2nc(C)c3c(N)ncnc32)nc2scc(C)c2c1=O [Compound 246] | > 10 | < 1 | < 0.1 | > 10 | < 0.1 |
| Cc1ccccc1-n1c(Cn2nc(Cl)c3c(N)ncnc32)nc2nccc(C)c2c1=O [Compound 203] | > 10 | < 1 | < 10 | > 10 | < 0.1 |
| Cc1csc2nc(Cn3nc(I)c4c(N)ncnc43)n(-c3ccccc3C(C)C)c(=O)c12 [Compound 284] | > 10 | < 0.1 | < 0.1 | < 10 | < 0.1 |
| Cc1ccccc1-n1c(Cn2nc(I)c3c(N)ncnc32)nc2nccc(C)c2c1=O [Compound 199] | > 10 | < 0.1 | < 10 | > 10 | < 1 |
| Cc1csc2nc(Cn3nc(Cl)c4c(N)ncnc43)n(-c3ccccc3C(F)(F)F)c(=O)c12 [Compound 280] | > 10 | < 0.1 | < 1 | > 10 | < 0.1 |
| CCc1ccccc1-n1c(Cn2nc(-c3cccc(O)c3)c3c(N)ncnc32)nc2scc(C)c2c1=O [Compound 290] | > 10 | < 0.1 | < 0.1 | < 10 | < 0.1 |
| Cc1ccccc1-n1c(Cn2nc(Br)c3c(N)ncnc32)nc2nccc(C)c2c1=O [Compound 204] | > 10 | < 1 | > 10 | > 10 | < 0.1 |
| COc1ccccc1-n1c(Cn2nc(-c3cccc(O)c3)c3c(N)ncnc32)nc2scc(C)c2c1=O [Compound 275] | > 10 | < 0.1 | < 1 | < 10 | < 0.1 |
| COc1ccccc1-n1c(Cn2nc(Br)c3c(N)ncnc32)nc2scc(C)c2c1=O [Compound 274] | > 10 | – | < 1 | > 10 | < 0.1 |
| Cc1ccccc1-n1c(Cn2nc(-c3ccc(O)c(Cl)c3)c3c(N)ncnc32)nc2scc(C)c2c1=O [Compound 269] | > 10 | – | < 0.1 | < 10 | < 0.1 |
| Cc1ccccc1-n1c(Cn2nc(I)c3c(N)ncnc32)nc2scc(C)c2c1=O [Compound 242] | > 10 | < 0.1 | < 1 | > 10 | < 0.1 |

| Compound | IC50 (PI3K α) [µM] | EC50 (Balb/c splenic B cells) [µM] | IC50 (PI3K γ) [µM] | IC50 (PI3K β) [µM] | IC50 (PI3K δ) [µM] |
| --- | --- | --- | --- | --- | --- |
| Cc1ccccc1-n1c(Cn2nc(-c3cccc(O)c3)c3c(N)ncnc32)nc2snc(C)c2c1=O [Compound 241] | > 10 | – | < 10 | > 10 | < 1 |
| Cc1csc2nc(Cn3nc(C#C[C@@H](C)O)c4c(N)ncnc43)n(-c3ncccc3C(F)(F)F)c(=O)c12 [Compound 282] | > 10 | < 0.1 | < 10 | < 10 | < 0.1 |
| Cc1ccnc2nc(Cn3nc(C#CC4CC4)c4c(N)ncnc43)n(-c3ccccc3Cl)c(=O)c12 [Compound 208] | > 10 | < 10 | > 10 | > 10 | < 10 |
| Cc1ccccc1-n1c(Cn2nc(Br)c3c(N)ncnc32)nc2scc(C)c2c1=O [Compound 250] | > 10 | < 0.1 | < 1 | > 10 | < 0.1 |
| CCc1ccccc1-n1c(Cn2nc(Br)c3c(N)ncnc32)nc2scc(C)c2c1=O [Compound 283] | > 10 | < 0.1 | < 0.1 | < 10 | < 0.1 |
| Cc1ccccc1-n1c(Cn2nc(-c3cc(O)cc(F)c3)c3c(N)ncnc32)nc2nccc(C)c2c1=O [Compound 200] | > 10 | < 10 | > 10 | > 10 | < 1 |
| Cc1ccccc1-n1c(Cn2nc(Cl)c3c(N)ncnc32)nc2scc(C)c2c1=O [Compound 249] | > 10 | < 0.1 | < 1 | > 10 | < 0.1 |
| Cc1cc2c(=O)n(-c3ccccc3C)c(Cn3nc(-c4cccc(O)c4)c4c(N)ncnc43)nc2s1 [Compound 294] | > 10 | – | > 10 | > 10 | < 10 |
| Cc1cccnc1-n1c(Cn2nc(Cl)c3c(N)ncnc32)nc2scc(C)c2c1=O [Compound 270] | > 10 | – | < 10 | > 10 | < 1 |
| Cc1cc2c(=O)n(-c3ccccc3C)c(Cn3nc(Br)c4c(N)ncnc43)nc2s1 [Compound 285] | > 10 | – | > 10 | > 10 | < 10 |
| Cc1ccccc1-n1c(Cn2nc(C#CC3CC3)c3c(N)ncnc32)cc2nccc(C)c2c1=O [Compound 225] | > 10 | < 1 | > 10 | > 10 | < 1 |
| Cc1ccnc2cc(Cn3nc(-c4cc(O)cc(F)c4)c4c(N)ncnc43)n(-c3ccccc3F)c(=O)c12 [Compound 231] | > 10 | < 0.1 | < 1 | > 10 | < 0.1 |
| Cc1ccccc1-n1c(Cn2nc(Br)c3c(N)ncnc32)nc2snc(C)c2c1=O [Compound 239] | > 10 | – | > 10 | > 10 | < 1 |
| Cc1csc2nc(Cn3nc(-c4cc(O)cc(F)c4)c4c(N)ncnc43)n(-c3ccccc3F)c(=O)c12 [Compound 258] | > 10 | < 0.1 | < 0.1 | > 10 | < 0.1 |
| Cc1ccccc1N1C(=O)C2C(C=NN2C)N=C1Cn1nc(-c2cc(O)cc(F)c2)c2c(N)ncnc21 (stereo not shown) [Compound 221] | > 10 | < 1 | > 10 | > 10 | < 0.1 |
| Cc1ccccc1-n1c(Cn2nc(-c3ccc(O)c(F)c3)c3c(N)ncnc32)cc2nccc(C)c2c1=O [Compound 226] | > 10 | < 1 | < 1 | > 10 | < 0.1 |
| Cc1csc2nc(Cn3nc(-c4cc(O)cc(F)c4)c4c(N)ncnc43)n(-c3ccccc3Cl)c(=O)c12 [Compound 296] | < 10 | < 0.1 | > 10 | < 1 | < 0.1 |
| Cc1ccccc1-n1c(Cn2nc(-c3cccc(O)c3)c3c(N)ncnc32)nc2sc(C)c(C)c2c1=O [Compound 299] | > 10 | – | > 10 | > 10 | < 1 |
| Cc1csc2nc(Cn3nc(C#C[C@@H](C)O)c4c(N)ncnc43)n(-c3ccccc3F)c(=O)c12 [Compound 261] | > 10 | < 1 | < 0.1 | > 10 | < 0.1 |
